Consider one compound from paper PMC3655043, “Functional expression of a blood tolerant laccase in Pichia pastoris” (BMC Biotechnology, 2013).

Structures are written as SMILES.

This assay addresses T1, ChU-B laccase (blood-tolerant ChU-B mutant of PM1 laccase) (basidiomycete PM1, UniProt Q12571, F417I/F475E, form not given).
T1 construct: directed-evolution variant; alpha-factor evolved prepro-leader processed, extra N-terminal ETEAEF kept (ETEAEFSIGP...); secreted by Pichia pastoris X-33; 53,939 Da calculated, 62,541 Da glycosylated
The experiment in a line: steady-state kinetics, absorbance […] nm. As to conditions: pH 5.0; enzyme from P. pastoris; read-out: ChU-B fromP. pastoris / Km. The format is biochemical.

T1 sequence (Q12571 entry or part of it F417I/F475E, form open): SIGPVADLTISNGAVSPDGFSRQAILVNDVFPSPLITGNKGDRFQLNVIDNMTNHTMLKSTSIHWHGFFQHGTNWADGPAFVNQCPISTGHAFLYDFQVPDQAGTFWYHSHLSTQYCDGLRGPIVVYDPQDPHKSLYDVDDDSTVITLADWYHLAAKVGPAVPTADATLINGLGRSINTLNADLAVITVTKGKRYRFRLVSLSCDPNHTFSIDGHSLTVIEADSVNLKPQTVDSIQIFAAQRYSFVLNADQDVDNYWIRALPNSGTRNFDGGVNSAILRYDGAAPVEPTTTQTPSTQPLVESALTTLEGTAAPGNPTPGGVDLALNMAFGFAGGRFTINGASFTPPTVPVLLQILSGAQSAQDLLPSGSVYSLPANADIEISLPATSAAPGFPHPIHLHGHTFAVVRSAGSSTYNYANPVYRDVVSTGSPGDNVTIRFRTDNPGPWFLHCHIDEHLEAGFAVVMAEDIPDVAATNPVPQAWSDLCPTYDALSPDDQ

As to `COc1cccc(OC)c1O` [DMP], the Km came to 1910 ± 50 µM.
